According to ChEMBL document CHEMBL4196089, “Design, synthesis, biological evaluation and in vivo testing of dual phosphodiesterase 5 (PDE5) and histone deacetylase 6 (HDAC6)-selective inhibitors for the treatment of Alzheimer's disease” (Eur J Med Chem, 2018):

Assays:
[1] = biological target: T1, Histone deacetylase 1 (Homo sapiens, UniProt Q13547); assay: Inhibition of full length human recombinant C-terminal FLAG/His-tagged HDAC1 expressed in baculovirus infected sf9 cells assessed residence time preincubated fopr 2 hrs followed by dilution and subsequent fluorogenic HDAC substrate 3 addition measured at 2 mins time interval by fluorescence based jump dilution assay
T1 sequence (Q13547 whole entry): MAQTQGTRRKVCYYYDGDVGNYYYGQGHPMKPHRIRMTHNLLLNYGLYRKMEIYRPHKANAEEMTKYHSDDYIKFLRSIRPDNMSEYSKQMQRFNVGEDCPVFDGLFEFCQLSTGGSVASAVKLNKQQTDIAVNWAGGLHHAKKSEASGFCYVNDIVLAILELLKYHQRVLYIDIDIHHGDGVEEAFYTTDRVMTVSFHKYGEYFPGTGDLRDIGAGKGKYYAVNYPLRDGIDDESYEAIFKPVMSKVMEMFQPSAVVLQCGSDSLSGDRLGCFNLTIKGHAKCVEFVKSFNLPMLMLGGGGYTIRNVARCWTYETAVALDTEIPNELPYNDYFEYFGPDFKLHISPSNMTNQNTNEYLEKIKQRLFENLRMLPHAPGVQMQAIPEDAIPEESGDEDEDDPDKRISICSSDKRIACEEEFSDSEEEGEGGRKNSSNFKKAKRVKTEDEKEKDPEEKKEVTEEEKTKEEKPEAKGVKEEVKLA

[2] = Cytotoxicity against Tg2576 mouse primary neurons after 72 hrs by ATP luminescence assay; type: cell-based, Neuron; conditions: read-out: LC50
[3] = biological target: CYP3A4 (Homo sapiens, UniProt P08684); assay: Inhibition of CYP3A4 in human liver microsomes at 10 uM after 10 mins in presence of NADPH by LC-MS/MS analysis relative to control; type: ADME
Chain of CYP3A4 (P08684 whole entry): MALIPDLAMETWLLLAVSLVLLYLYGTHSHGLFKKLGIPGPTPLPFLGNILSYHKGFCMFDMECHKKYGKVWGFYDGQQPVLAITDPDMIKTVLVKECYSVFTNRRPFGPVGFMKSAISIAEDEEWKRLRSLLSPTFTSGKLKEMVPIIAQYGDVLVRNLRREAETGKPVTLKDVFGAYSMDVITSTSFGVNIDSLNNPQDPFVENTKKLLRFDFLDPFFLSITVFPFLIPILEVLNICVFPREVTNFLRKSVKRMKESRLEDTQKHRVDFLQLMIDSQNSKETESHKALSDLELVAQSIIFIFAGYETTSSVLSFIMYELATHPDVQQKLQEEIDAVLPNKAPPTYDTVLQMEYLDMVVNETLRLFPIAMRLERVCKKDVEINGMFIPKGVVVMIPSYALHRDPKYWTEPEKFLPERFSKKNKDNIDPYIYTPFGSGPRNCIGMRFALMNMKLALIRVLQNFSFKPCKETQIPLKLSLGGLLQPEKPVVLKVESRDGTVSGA

[4] = biological target: CYP1A2 (Homo sapiens, UniProt P05177); assay: Inhibition of CYP1A2 in human liver microsomes at 10 uM after 10 mins in presence of NADPH by LC-MS/MS analysis relative to control; type: ADME
Chain of CYP1A2 (P05177 whole entry): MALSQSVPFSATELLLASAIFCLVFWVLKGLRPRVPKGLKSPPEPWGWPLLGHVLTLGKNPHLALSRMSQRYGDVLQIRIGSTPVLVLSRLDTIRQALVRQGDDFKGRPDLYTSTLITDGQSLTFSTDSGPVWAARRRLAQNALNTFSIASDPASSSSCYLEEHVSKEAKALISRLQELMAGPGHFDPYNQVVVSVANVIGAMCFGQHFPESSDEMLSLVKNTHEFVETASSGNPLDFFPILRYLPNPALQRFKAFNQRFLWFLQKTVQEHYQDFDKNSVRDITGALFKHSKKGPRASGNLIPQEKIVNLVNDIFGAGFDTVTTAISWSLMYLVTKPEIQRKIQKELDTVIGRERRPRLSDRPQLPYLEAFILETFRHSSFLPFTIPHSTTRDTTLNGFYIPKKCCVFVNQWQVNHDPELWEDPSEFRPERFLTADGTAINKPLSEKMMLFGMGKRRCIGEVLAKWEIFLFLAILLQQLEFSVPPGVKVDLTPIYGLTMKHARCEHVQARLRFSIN

[5] = cells; conditions: Homo sapiens, SH-SY5Y, 2 h, read-out: FC
[6] = biological target: Cone cGMP-specific 3',5'-cyclic phosphodiesterase subunit alpha' (Homo sapiens, UniProt P51160); assay: Inhibition of PDE6C (unknown origin) using FAM-cGMP as substrate by fluorescence assay
Chain of Cone cGMP-specific 3',5'-cyclic phosphodiesterase subunit alpha' (P51160 whole entry): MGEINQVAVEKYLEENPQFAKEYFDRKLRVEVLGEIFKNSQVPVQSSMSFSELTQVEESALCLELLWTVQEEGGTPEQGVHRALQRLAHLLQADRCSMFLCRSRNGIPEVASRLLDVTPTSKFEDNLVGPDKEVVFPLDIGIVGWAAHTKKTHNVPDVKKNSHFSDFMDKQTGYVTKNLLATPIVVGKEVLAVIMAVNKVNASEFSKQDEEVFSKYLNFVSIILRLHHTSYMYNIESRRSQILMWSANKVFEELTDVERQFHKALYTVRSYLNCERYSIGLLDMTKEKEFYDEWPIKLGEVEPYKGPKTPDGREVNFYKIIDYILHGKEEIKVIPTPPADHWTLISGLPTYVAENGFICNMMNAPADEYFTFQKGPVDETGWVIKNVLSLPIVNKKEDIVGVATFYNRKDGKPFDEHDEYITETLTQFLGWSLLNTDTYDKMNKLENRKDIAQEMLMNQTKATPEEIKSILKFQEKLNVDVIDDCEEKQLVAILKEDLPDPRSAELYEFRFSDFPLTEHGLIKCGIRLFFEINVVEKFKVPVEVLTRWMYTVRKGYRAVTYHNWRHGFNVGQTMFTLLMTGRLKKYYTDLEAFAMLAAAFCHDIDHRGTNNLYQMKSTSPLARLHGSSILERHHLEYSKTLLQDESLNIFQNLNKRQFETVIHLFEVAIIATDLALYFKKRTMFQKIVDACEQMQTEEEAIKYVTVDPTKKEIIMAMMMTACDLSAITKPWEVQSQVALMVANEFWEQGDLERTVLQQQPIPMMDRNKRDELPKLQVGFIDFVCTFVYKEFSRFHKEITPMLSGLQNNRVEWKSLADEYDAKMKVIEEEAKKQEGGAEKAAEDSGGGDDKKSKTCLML

[7] = biological target: Histone deacetylase 9 (Homo sapiens, UniProt Q9UKV0); assay: Inhibition of human HDAC9
Chain of Histone deacetylase 9 (Q9UKV0 whole entry): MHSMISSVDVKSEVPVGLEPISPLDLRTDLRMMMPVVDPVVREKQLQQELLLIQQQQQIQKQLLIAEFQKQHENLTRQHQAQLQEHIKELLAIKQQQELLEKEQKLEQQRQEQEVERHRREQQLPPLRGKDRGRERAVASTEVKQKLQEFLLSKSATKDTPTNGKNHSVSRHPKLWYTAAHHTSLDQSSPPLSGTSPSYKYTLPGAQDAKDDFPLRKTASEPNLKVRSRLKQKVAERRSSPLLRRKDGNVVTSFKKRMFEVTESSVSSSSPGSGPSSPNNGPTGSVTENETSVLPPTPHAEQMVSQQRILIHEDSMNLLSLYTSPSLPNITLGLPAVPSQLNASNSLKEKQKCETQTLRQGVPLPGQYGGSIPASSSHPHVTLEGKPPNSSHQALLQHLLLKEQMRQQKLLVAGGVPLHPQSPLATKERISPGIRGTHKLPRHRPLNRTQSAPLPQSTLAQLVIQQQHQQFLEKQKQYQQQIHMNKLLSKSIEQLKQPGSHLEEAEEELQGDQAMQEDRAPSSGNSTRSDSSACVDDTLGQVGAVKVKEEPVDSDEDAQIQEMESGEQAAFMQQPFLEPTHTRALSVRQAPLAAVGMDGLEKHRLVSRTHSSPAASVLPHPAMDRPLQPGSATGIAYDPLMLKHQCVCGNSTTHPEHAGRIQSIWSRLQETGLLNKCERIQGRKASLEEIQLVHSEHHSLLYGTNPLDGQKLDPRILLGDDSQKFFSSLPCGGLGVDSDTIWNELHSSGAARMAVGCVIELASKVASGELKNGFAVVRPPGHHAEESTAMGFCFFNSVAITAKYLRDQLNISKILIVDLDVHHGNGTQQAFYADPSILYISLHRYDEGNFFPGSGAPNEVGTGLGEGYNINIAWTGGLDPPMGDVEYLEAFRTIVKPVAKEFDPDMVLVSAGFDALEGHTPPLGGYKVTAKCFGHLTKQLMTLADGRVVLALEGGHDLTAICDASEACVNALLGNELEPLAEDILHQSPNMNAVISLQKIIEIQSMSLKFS

[8] = Selectivity ratio of compound effect for inhibition of HDAC6 in human SH-SY5Y cells assessed as induction of tubulin K-40 acetylation level to compound effect for inhibition of class-1 HDAC in human SH-SY5Y cells assessed as induction of AcH3K9 level; type: functional
[9] = biological target: CYP2C19 (Homo sapiens, UniProt P33261); assay: Inhibition of CYP2C19 in human liver microsomes at 10 uM after 10 mins in presence of NADPH by LC-MS/MS analysis relative to control; type: ADME
Chain of CYP2C19 (P33261 whole entry): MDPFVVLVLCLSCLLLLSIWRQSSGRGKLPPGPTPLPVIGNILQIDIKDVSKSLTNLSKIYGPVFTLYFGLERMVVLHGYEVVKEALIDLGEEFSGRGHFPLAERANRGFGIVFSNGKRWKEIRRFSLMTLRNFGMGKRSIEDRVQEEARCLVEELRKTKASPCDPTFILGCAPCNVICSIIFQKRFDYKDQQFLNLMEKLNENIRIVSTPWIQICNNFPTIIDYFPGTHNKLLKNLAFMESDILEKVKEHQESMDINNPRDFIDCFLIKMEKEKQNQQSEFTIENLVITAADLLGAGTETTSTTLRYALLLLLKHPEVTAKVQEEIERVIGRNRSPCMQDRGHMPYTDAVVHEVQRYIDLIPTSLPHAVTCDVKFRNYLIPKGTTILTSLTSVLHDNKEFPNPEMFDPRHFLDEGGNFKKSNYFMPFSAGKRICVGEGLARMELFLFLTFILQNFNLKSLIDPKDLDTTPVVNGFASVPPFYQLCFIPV

[10] = biological target: Protein deacetylase HDAC6 (Mus musculus) (UniProt Q9Z2V5); assay: Inhibition of HDAC6 in Tg2576 mouse primary neurons assessed as reduction in human APP protein level at 100 nM treated for 2 days measured at 24 hrs post last dose by Western blot analysis relative to control
Chain of Protein deacetylase HDAC6 (Mus musculus) (Q9Z2V5 whole entry): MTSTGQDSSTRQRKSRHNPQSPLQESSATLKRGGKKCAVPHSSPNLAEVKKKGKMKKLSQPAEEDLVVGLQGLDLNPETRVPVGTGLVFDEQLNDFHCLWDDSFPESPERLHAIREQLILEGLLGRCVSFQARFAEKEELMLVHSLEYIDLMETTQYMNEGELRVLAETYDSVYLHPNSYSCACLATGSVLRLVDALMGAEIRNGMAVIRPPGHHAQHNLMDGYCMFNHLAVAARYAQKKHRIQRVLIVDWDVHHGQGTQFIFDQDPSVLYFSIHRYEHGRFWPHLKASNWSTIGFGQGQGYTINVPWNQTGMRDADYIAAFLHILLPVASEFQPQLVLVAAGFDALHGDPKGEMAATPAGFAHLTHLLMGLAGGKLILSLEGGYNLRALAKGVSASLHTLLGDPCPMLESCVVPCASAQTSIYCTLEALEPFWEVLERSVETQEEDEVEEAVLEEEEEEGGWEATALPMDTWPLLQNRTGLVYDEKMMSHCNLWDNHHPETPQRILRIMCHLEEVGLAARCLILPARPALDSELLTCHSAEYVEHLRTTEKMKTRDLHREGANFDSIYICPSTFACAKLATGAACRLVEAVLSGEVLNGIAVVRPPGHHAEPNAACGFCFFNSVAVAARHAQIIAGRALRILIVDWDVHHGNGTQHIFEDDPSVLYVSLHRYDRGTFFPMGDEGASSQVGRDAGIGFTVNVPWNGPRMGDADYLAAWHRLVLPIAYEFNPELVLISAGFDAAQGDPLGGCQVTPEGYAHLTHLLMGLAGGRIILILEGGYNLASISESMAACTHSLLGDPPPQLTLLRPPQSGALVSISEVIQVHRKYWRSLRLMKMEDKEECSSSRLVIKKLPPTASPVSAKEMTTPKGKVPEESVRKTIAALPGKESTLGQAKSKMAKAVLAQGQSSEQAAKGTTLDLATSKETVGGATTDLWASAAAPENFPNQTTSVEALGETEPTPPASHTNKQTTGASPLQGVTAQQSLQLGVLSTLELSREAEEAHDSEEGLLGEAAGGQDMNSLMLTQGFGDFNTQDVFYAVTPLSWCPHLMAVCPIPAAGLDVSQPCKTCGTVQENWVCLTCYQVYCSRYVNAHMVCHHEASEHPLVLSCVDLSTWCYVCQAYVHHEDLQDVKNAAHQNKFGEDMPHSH

[11] = biological target: T1, Histone deacetylase 1; assay: Inhibition of full length human recombinant C-terminal FLAG/His-tagged HDAC1 expressed in baculovirus infected sf9 cells using fluorogenic HDAC substrate 3 after 4 hrs fluorescence assay

Question: For `CCCc1nn(C)c2c(=O)[nH]c(-c3cc(Cc4ccc(C(=O)NO)s4)ccc3OCC)nc12`, which residence time [1] is on record?
Answer: Its residence time is 15.5 min.

Question: And the CC50 at 72 h [2]?
Answer: The CC50 at 72 h was 46.3 µM.

Question: What about the inhibition at 10 min, 10 µM [3] of the same compound?
Answer: The inhibition at 10 min, 10 µM was 23.4%.

Question: And the inhibition at 10 min, 10 µM [4]?
Answer: Its inhibition at 10 min, 10 µM is less than 50%.

Question: What about the fold induction at 0.1 µM [5] of the same compound?
Answer: The fold induction at 0.1 µM was 1.8.

Question: What about the IC50 [6] of the same compound?
Answer: The IC50 was 1.4 nM.

Question: What about the IC50 [7] of the same compound?
Answer: Its IC50 is greater than 10 µM.

Question: What about the Selectivity ratio [8] of the same compound?
Answer: The Selectivity ratio was greater than 5.

Question: And the inhibition at 10 min, 10 µM [9]?
Answer: The inhibition at 10 min, 10 µM was less than 50%.

Question: And the inhibition [10]?
Answer: Its inhibition is 55%.

Question: What about the IC50 [11] of the same compound?
Answer: Its IC50 is 841 nM.
